{"source": "patent US20120258042A1", "about": "“COMBINED USE OF TGF-B SIGNALING INHIBITOR AND ANTITUMOR AGENT” (priority 2006, published 2012)", "key": {"[1]": {"tested_on": "TGFbRII-mutant pancreatic adenocarcinoma cell line MIA PaCa-2", "test": "3-8 MIA PaCa-2 xenograft tumor growth curve", "type": "in vivo, nude mice", "conditions": "regimen as 3-7, start = 1, control 2.91±0.30", "experimental": "For each of, 16 mg/kg of Micelle-ADR or 8 mg/kg of ADR as anticancer agent, or no anticancer agent, administration via the tail vein was carried out three times spaced by four days. As TGF-β inhibitor, 1 mg/kg of LY364947 (hereinafter, referred to as LY) or control was administered three times a week intraperitoneally. The experiment was carried out for the six conditions combining the above 3×2 types [of administration modes], with n=5 each. For these animals, the approximated values of tumor volume were observed continuously for 16 days. For the tumor volumes, those that have been approximated by long side of tumor mass×(short side)^2 were compared, taking 1 as the value at the administration start time for each tumor mass."}, "[2]": {"tested_on": "Smad-4-deficient pancreatic adenocarcinoma cells (BxPC3)", "test": "3-7 BxPC3 xenograft growth curve, three administrations of ADR or Micelle-ADR with or without LY", "type": "in vivo, nude mice", "conditions": "day 16, Micelle-ADR 16 mg/kg or ADR 8 mg/kg i.v. three times spaced by four days, LY 1 mg/kg i.p. three times a week, start = 1, control 4.69±0.46", "experimental": "For each of, 16 mg/kg of Micelle-ADR or 8 mg/kg of ADR as anticancer agent, or no anticancer agent, administration via the tail vein was carried out three times spaced by four days. […] For these animals, the approximated values of tumor volume were observed continuously for 16 days."}, "[3]": {"tested_on": "Smad-4-deficient pancreatic adenocarcinoma cells (BxPC3)", "test": "3-6 BxPC3 xenograft growth curve, single administration of ADR, Doxil, Micelle-ADR with or without LY", "type": "in vivo, nude mice", "conditions": "day 14, single dose 8 mg/kg anticancer agent i.v., LY 1 mg/kg i.p. once, start = 1, control 4.77±0.50", "experimental": "For each of 8 mg/kg of Doxil, 8 mg/kg of Micelle-ADR or 8 mg/kg of ordinary ADR as anticancer agent, or no anticancer agent, which was administrated via the tail vein, administration was carried out only once. […] Inhib in the figures) as TGF-β inhibitor or a control."}, "[4]": {"tested_on": "neovasculature in BxPC3 tumor tissue", "test": "3-1 BxPC3 xenograft, neovasculature morphological change and dextran distribution", "type": "in vivo, nude mice", "experimental": "Twenty-four hours before sacrificing the animals, 1 mg/kg of LY364947 (hereinafter, referred to as LY) as TGF-β inhibitor or a control was administered once intraperitoneally. […] Concretely, regarding the neovasculature morphology, vascular endothelial cells were recognized with an antibody against PECAM-1 (platelet endothelial cell adhesion molecule-1), vascular pericytes were recognized with an antibody against NG2 (neuroglycan 2), the proportion of the areas covered by pericytes within the total endothelial cell area, and, the areas positive for the vascular endothelium marker were quantified (hereabove, n=4 animals×10 microscopic visual fields=40), in addition, regarding dextran distribution, the distribution area thereof was quantified. In addition, after an identical model was prepared, 6 hours prior to sacrifice, macromolecular dextran with a molecular weight of 2,000,000 (Invitrogen Molecular Probes) was administered via the tail vein, and the difference in distribution in tumor tissue due to the presence or absence of inhibitor was investigated by quantification of the distribution area (n=3 animals×4 microscopic visual field=12)."}, "phosphorylated Smad2 [5]": {"tested_on": "phosphorylated Smad2", "test": "3-4 Phosphorylated Smad2 in nucleated blood cells by FACS one hour after LY364947", "type": "in vivo, nude mice", "conditions": "LY 1 mg/kg i.p., 1 h, control group 35.7%", "experimental": "Cancer-transplanted nude mice were administered once intraperitoneally with 1 mg/kg of LY as TGF-β inhibitor or a control. One hour after administration, whole blood collection was carried out, hemolysis treatment, formalin fixation, cell membrane perforation by methanol were carried out, then, staining was carried out with an antibody against phosphorylated Smad2, thereafter, the ratio of phosphorylated Smad2-positive cells was measured by FACS. In so doing, with those [samples] where only the secondary antibody was reacted serving as controls for the immuno-staining method, the gate was set so that rate of positive cell was approximately 1% in this group (P1 in FIG. 5-2), and the ratio of phosphorylated Smad2-positive cells was measured for the TGF-β inhibitor-administered group and the non-treated group."}, "[6]": {"test": "3-14 Drug in vivo dynamics in general organs, Micelle-ADR or ADR with LY", "parameters": "species or system nude mice", "experimental": "Each of 8 mg/kg of Micelle-ADR or 8 mg/kg of ADR as anticancer agent was administered to tumor-bearing nude mice via the tail vein. As TGF-β inhibitor, 1 mg/kg of LY or a control was administered intraperitoneally. Experiment was carried out for the four conditions combining the above 2×2 types [of administration modes], with n=3. […] In addition, the surrounding of the tail vein where the agents were administered was observation."}, "[7]": {"tested_on": "existing vasculature of general organs (brain, liver, kidney)", "test": "3-2 General organs, vasculature morphological change and dextran distribution", "type": "in vivo, nude mice", "conditions": "LY 1 mg/kg i.p.", "source_text": "Brain, liver and kidney were extracted from animals used in 3-1 to carry out histological search."}, "phosphorylated Smad2 [8]": {"tested_on": "phosphorylated Smad2", "test": "3-3 Phosphorylated Smad2 staining in BxPC3 cancer tissue one hour after LY364947", "type": "in vivo, nude mice", "conditions": "1 h", "experimental": "As TGF-β inhibitor, 1 mg/kg, 25 mg/kg or a control of LY was administered once intraperitoneally. The animals were sacrificed one hour after administration to extract the tumor, and immuno-histological staining of the tumor was carried out using an antibody against phosphorylated Smad2 as well as an antibody against PECAM1."}, "neovasculature": {"tested_on": "neovasculature", "test": "Matrigel plug assay, effects of TGF-β signaling inhibitor on neovasculature", "type": "in vivo, ICR mice", "conditions": "500 nM LY", "experimental": "In the present invention, increasing the leakiness of neovasculature in tumor tissue, and, depending on the circumstances, decreasing fibrosis, are phenomena that can be observed, for instance, in a dextran injection experiment (briefly, an experiment in which a mouse is used, a Matrigel in which VEGF-A and FGF-2 have been mixed is injected subcutaneously into the abdominal wall, and seven days after administering TGF-β signaling inhibitor intraperitoneally, 2,000,000 molecular weight dextran is injected, the animal is sacrificed, and the relationship between neovasculature and dextran distribution in the extracted Matrigel plug is determined: refer to Kano, M. R. et al., J. Cell Sci., 118, 3759-3768. (2005)) (refer to FIG. 2-1 and FIG. 2-2).\nVEGF-A, FGF-2, and heparin were mixed into Matrigel (BD), furthermore, 500 nM of the TGF-β inhibitor LY364947 (hereinafter, referred to as LY) or 50 μg/ml of T βRII:Fc or a control was further mixed into the same gel, these were subcutaneously injected into the abdominal wall of male ICR mice, the animals were sacrificed on the 7th day to extract the Matrigel plug, and a search was carried out using immunofluorescence staining. Concretely, regarding the neovasculature morphology, vascular endothelial cells were recognized with an antibody against PECAM-1 (platelet endothelial cell adhesion molecule-1) and vascular pericytes were recognized with an antibody against SMA (a smooth muscle actin), in the LY-administered group or control group, the proportion of the areas covered by pericytes within the total endothelial cell area, and, the areas positive for the vascular endothelium marker were quantified (hereabove, n=20). In addition, 6 hours prior to sacrifice, macromolecular dextran with a molecular weight of 2,000,000 (Invitrogen Molecular Probes) was administered via the tail vein, and the difference in distribution in tumor tissue due to the presence or absence of inhibitor was investigated by quantification of the distribution area (n=21)."}, "[9]": {"tested_on": "Smad-4-deficient pancreatic adenocarcinoma cells (BxPC3)", "test": "Combined effect of Gemcitabine and LY364947 on tumor volume, pancreatic adenocarcinoma xenograft model", "type": "in vivo, nude mice", "conditions": "day 21, Gem 125 mg/kg i.p. twice a week, LY 1 mg/kg i.p. three times a week, value at start = 1, control 5.56±1.59", "experimental": "Combining Gemcitabine (hereinafter, abbreviated as Gem), administrated twice a week intraperitoneally at 125 mg/kg, and LY364947 (hereinafter, referred to as LY), administrated three times a week intraperitoneally at 1 mg/kg, three groups were established as follows: a control group, a Gem alone administration group and a LY+Gem combined application group, with n=2 each. […] The tumor volumes were approximated by long side of tumor mass×(short side)^2 and compared, taking 1 as the value at the administration start time for each tumor mass."}, "hepatic fibrosis": {"tested_on": "hepatic fibrosis", "conditions": "intraperitoneal injection, cited from earlier work"}, "[10]": {"tested_on": "mouse breast cancer cell line 4T1", "conditions": "systemic administration by intraperitoneal injection; cited from earlier work"}}, "note": "Like-named read-outs stand apart in the source and are kept apart here.", "data": [{"molecule": "COc1cccc2c1C(=O)c1c(O)c3c(c(O)c1C2=O)C[C@@](O)(C(=O)CO)C[C@@H]3O[C@H]1C[C@H](N)[C@H](O)[C@H](C)O1", "note": "[ADR, adriamycin]", "values": [{"measurement": "relative tumor volume on the last day (16th day)", "setting": "[1]", "value": "0.87±0.19"}, {"measurement": "relative tumor volume on the last day", "setting": "[2]", "value": "3.49±0.20"}, {"measurement": "relative tumor volume on the last day", "setting": "[3]", "value": "4.70±0.32"}]}, {"molecule": "c1ccc(-c2[nH]ncc2-c2ccnc3ccccc23)nc1", "note": "[LY364947]", "values": [{"measurement": "endothelial cell marker-positive area", "setting": "[4]; BxPC3 xenograft, LY 1 mg/kg i.p. once, 24 h, control 1.00±0.03, p=0.02", "value": "1.13±0.06"}, {"measurement": "extent of coverage of endothelial cells by the pericyte", "setting": "[4]; BxPC3 xenograft, LY 1 mg/kg i.p. once, 24 h, control 36.0±2.2%, p=0.00002", "value": "23.3±1.9", "unit": "%"}, {"measurement": "macromolecular dextran distribution area", "setting": "[4]; BxPC3 xenograft, LY 1 mg/kg i.p. once, dextran MW 2,000,000 6 h before sacrifice, control 1.00±0.13, p=0.002", "value": "2.24±0.36"}, {"measurement": "fibrosis of tumor tissue (azan staining)", "setting": "[4]; LY 1 mg/kg, administered vs non-administered, P=0.336", "value": "no significant difference"}, {"measurement": "relative tumor volume on the last day (16th day)", "setting": "[1]", "value": "2.75±0.08"}, {"measurement": "cells positive for phosphorylated Smad2", "setting": "phosphorylated Smad2 [5]", "value": 16.3, "unit": "%"}, {"measurement": "relative tumor volume on the last day", "setting": "[2]", "value": "4.34±0.37"}, {"measurement": "organ distribution (frozen samples), LY administration vs non-administration", "setting": "[6]; LY 1 mg/kg i.p., four hours", "value": "no clear difference"}, {"measurement": "total amount of ADR in organs by the HPLC method, LY administration vs non-administration", "setting": "[6]; Micelle-ADR 8 mg/kg i.v., LY 1 mg/kg i.p., four hours, all organs measured", "value": "no significant difference"}, {"measurement": "anticancer agent-related phlebitis", "setting": "[6]; combined administration of LY 1 mg/kg i.p., surrounding of the tail vein", "value": "no deterioration"}, {"measurement": "relative tumor volume on the last day", "setting": "[3]", "value": "4.83±0.54"}, {"measurement": "dextran distribution in general organs", "setting": "[7]", "value": "no clear difference"}, {"measurement": "morphology of existing vasculature of general organs", "setting": "[7]", "value": "No clear change in morphology"}, {"measurement": "Smad2 phosphorylation in intratumoral vascular walls, magnified visual field", "setting": "phosphorylated Smad2 [8]; LY 1 mg/kg i.p.", "value": "cancellation of Smad2 phosphorylation was observed"}, {"measurement": "phosphorylated Smad2 staining of tumor vs control, weak magnification visual field", "setting": "phosphorylated Smad2 [8]; LY 1 mg/kg i.p.", "value": "no remarkable difference"}, {"measurement": "Smad2 phosphorylation in cancer cells", "setting": "phosphorylated Smad2 [8]; LY 25 mg/kg i.p.", "value": "cancellation of Smad2 phosphorylation was observed in almost the entirety of the cancer cells"}, {"measurement": "total area of the vascular endothelium", "setting": "neovasculature; day 7, p=0.0009", "value": "increased significantly"}, {"measurement": "endothelial cell coverage of the pericytes", "setting": "neovasculature; day 7, vs non-administered group, p=0.006", "value": "decreased significantly"}, {"measurement": "dextran distribution area", "setting": "neovasculature; dextran MW 2,000,000 i.v. 6 h before sacrifice, p<0.0001", "value": "increased approximately two-fold"}]}, {"molecule": "Nc1ccn([C@@H]2O[C@H](CO)[C@@H](O)C2(F)F)c(=O)n1", "note": "[Gemcitabine]", "values": [{"measurement": "relative tumor volume on the last day", "setting": "[9]", "value": "4.76±0.46"}]}, {"molecule": "solubilized TGF-β Type II receptor: solubilized TGF-β Type II receptor (TGF-β ligand-adsorbed) protein, literature studies (protein, UniProt P37173 23-166, looked up, extracellular domain, solubilized TGF-β Type II receptor (TGF-β ligand-adsorbed) protein, literature studies) extracellular domain: TIPPHVQKSVNNDMIVTDNNGAVKFPQLCKFCDVRFSTCDNQKSCMSNCSITSICEKPQEVCVAVWRKNDENITLETVCHDPKLPYHDFILEDAASPKCIMKEKKKPGETFFMCSCSSDECNDNIIFSEEYNTSNPDLLLVIFQ", "values": [{"measurement": "hepatic fibrosis", "setting": "hepatic fibrosis; 2.5 mg/kg", "value": "not suppressed"}, {"measurement": "hepatic fibrosis", "setting": "hepatic fibrosis; 5 mg/kg", "value": "suppressed"}, {"measurement": "lung metastasis", "setting": "[10]", "value": "decreased"}]}]}
